The values below are quoted from earlier work in patent US20060128641A1, “Levamisole, avermectins or similar in pyrrolidone solvent” (priority 2002, published 2006).

One series relates to Cooperia. To be noted: background table, cattle parasites.
For series [1] the following is noted: background.
In the next series the test system is Ostertagia. To be noted: background table, cattle parasites.
For series [2] the following is noted: previously found.

On to `c1ccc([C@H]2CN3CCSC3=N2)cc1` [Levamisole], for which the “Cooperia Efficacy” value with Cooperia was “Good”. For the same molecule, the solubility in water entry in series [1] is reported as “water soluble”. Besides, in the series on Ostertagia, the “Ostertagia Efficacy” value is given as “Poor”. For the same molecule, the “pH required for stability” value in series [2] is recorded as “less than 4”.
